We go through 42 molecules from patent publication US20250313535A1, “ALPHA 4 BETA 7 INTEGRIN MODULATORS AND USES THEREOF” (DICE MOLECULES SV, INC., priority 2022, published 2025).

One assay concerns the target α4β7 integrin (Homo sapiens (Human), UniProt P13612+P26010). The assay can be described thus: Integrin Adhesion Assay: Protocol 4 (MAdCAM-coated plate, RPMI-8866 cells with stable LOF mutation of the ITGB1 gene). The format is cell-based. Conditions: Protocol 4; RPMI-8866 cells with LOF mutation of ITGB1, MAdCAM; read-out: Mean IC50 α4β7 KO. Put shortly:
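RPMI-8866 cells with CRISPR/Cas9 knockout of ITGB1 (2×10^6/mL) were added to MAdCAM-coated wells with compound (1% DMSO) in HEPES/NaCl buffer with 1 mM MnCl2, 0.1 mM CaCl2 and 1% BSA, then incubated 1 h at 37 °C. After four washes, adherent cells were quantified by CellTiter-Glo luminescence. Percent inhibition versus DMSO and control compound was fitted to 4-parameter curves.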

The next assay has as its target α4β1 integrin (Homo sapiens (Human), UniProt P05556+P13612). The assay can be described thus: Integrin Adhesion Assay: Protocol 5 (VCAM-coated plate, RPMI-8866 cells with stable LOF mutation of the ITGB7 gene). Particulars: Protocol 5; RPMI-8866 cells with LOF mutation of ITGB7, VCAM; read-out: Mean IC50 α4β1 KO. The format is cell-based. A digest of the protocol:
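RPMI-8866 B cells with CRISPR/Cas9 ITGB7 knockout (clonal, verified by flow cytometry) adhered to VCAM-coated wells for 1 h at 37° C in HEPES/NaCl buffer with 1 mM MnCl2, 0.1 mM CaCl2, 1% BSA, 1% DMSO. Bound cells quantified by CellTiter-Glo luminescence after washing; % inhibition versus DMSO and control, 4-parameter fit.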

Molecules are shown by their SMILES. A value given as a limit tells only on which side of the number the result lay.

α4β1 integrin, sequence (P13612 34-1032): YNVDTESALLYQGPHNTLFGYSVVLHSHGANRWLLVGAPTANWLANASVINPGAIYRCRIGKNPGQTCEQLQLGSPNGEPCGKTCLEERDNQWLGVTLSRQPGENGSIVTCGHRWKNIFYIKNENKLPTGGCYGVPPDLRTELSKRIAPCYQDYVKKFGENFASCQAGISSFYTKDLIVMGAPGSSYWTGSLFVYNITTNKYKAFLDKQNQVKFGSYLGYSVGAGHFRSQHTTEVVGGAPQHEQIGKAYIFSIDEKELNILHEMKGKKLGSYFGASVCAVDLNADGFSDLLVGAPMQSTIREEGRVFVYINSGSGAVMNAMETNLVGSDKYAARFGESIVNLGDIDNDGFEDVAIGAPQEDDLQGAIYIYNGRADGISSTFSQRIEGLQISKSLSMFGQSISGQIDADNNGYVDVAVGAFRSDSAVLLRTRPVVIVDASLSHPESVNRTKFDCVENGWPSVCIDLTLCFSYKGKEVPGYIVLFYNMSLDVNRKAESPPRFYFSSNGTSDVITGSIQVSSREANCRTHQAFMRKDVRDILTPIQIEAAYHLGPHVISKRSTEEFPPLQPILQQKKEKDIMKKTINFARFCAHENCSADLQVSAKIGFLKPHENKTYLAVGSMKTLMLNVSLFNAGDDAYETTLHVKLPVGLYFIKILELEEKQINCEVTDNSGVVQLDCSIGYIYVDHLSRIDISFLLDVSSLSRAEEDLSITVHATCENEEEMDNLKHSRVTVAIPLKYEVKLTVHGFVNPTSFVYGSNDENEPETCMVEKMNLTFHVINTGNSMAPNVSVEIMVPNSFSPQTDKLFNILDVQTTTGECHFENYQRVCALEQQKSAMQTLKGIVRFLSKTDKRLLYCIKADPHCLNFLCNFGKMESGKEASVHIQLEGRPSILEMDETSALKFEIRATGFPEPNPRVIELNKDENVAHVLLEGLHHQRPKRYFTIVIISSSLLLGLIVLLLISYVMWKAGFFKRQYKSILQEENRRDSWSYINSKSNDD
α4β1 integrin, sequence (P05556 21-798): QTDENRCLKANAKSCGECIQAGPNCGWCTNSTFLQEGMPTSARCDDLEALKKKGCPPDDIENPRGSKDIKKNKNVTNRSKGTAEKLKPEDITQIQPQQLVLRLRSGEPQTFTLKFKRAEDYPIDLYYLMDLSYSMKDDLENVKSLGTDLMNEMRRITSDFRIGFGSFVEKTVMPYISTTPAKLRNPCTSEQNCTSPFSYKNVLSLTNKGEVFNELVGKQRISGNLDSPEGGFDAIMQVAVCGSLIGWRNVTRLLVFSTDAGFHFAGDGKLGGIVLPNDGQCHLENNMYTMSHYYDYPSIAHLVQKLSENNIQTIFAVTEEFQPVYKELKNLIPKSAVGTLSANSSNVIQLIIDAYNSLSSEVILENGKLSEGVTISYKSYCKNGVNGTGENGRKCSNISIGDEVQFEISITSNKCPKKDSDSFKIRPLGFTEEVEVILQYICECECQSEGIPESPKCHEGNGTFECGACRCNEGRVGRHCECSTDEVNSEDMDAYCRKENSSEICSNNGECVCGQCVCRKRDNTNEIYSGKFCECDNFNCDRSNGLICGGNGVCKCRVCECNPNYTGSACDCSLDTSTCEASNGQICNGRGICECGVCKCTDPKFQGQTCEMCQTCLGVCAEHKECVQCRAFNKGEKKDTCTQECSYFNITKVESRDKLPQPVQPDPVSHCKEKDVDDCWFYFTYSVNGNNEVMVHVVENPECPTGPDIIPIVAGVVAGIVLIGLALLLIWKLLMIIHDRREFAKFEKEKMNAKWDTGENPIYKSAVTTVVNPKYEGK
α4β7 integrin, sequence (P13612 34-1032): as the sequence (P13612 34-1032) above
α4β7 integrin, sequence (P26010 20-798): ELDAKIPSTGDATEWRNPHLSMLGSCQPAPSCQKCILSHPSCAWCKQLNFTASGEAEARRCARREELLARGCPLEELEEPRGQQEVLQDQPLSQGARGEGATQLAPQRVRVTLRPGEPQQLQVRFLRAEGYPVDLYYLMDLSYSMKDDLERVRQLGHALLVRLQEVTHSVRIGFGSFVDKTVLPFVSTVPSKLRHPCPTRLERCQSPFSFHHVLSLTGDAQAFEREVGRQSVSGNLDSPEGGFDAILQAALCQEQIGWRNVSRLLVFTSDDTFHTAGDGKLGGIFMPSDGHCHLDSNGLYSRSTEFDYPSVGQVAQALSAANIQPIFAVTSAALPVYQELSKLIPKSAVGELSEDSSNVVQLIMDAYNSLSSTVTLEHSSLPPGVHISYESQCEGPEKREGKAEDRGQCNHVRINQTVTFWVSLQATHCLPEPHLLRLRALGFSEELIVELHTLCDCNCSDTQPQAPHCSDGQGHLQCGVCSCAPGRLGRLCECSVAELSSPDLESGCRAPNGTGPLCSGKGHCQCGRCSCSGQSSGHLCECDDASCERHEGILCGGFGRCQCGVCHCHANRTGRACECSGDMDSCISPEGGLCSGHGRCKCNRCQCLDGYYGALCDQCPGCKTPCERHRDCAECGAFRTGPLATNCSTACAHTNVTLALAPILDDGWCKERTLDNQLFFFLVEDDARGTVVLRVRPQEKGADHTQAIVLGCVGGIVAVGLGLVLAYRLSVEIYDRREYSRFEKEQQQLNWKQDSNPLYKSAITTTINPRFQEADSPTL

In general, IC50 refers to the midpoint of a concentration-inhibition curve. Regarding `COc1cccc(CCN2CCC(c3ccccc3)CC2)c1-c1cccc2c(C[C@H](NC(=O)C3(C(F)(F)F)CCN(CC(F)F)CC3)C(=O)O)cccc12` [Compound 975], the IC50 on α4β7 integrin was < 10 nM; on α4β1 integrin, 100 to 1000 nM.

In the case of `COc1cccc(CCN2CCC(F)(F)CC2)c1-c1cccc2c(C[C@H](NC(=O)C3(C(F)(F)F)CCN(CC(F)F)CC3)C(=O)O)cccc12` [Compound 976], the figures for the IC50 on α4β7 integrin and on α4β1 integrin were < 10 nM and 100 to 1000 nM, respectively.

For `O=C(O)[C@H](Cc1cccc2c(-c3ncc(CCN4CCC[C@@H](F)C4)c4ccccc34)cccc12)NC(=O)C1(C(F)(F)F)CCN(CC(F)(F)F)CC1` [Compound 977], the figures for the IC50 at α4β7 integrin and at α4β1 integrin were < 10 nM and > 1000 nM, respectively.

With `O=C(O)[C@H](Cc1cccc2c(-c3ncc(CCN4CCC[C@H](F)C4)c4ccccc34)cccc12)NC(=O)C1(C(F)(F)F)CCN(CC(F)(F)F)CC1` [Compound 978], the values for the IC50 at α4β7 integrin and on α4β1 integrin were < 10 nM and > 1000 nM, respectively.

Turning to `O=C(O)[C@H](Cc1cccc2c(-c3ncc(CCN4CCC(F)(F)CC4)c4ccccc34)cccc12)NC(=O)C1(C(F)(F)F)CCN(CC(F)(F)F)CC1` [Compound 980], the IC50 at α4β7 integrin is 10 to 100 nM; at α4β1 integrin it was > 1000 nM.

Regarding `CC(C)(C)C1CCN(CCc2cnc(-c3cccc4c(C[C@H](NC(=O)C5(C(F)(F)F)CCN(CC(F)(F)F)CC5)C(=O)O)cccc34)c3ccccc23)CC1` [Compound 981], the IC50 on α4β7 integrin is < 10 nM; on α4β1 integrin, > 1000 nM.

Take `O=C(O)[C@H](Cc1cccc2c(-c3nccc4cccc(CCN5CCCCC5)c34)cccc12)NC(=O)C1(C(F)(F)F)CCN(CC(F)(F)F)CC1` [Compound 982]: the figures for the IC50 at α4β7 integrin and on α4β1 integrin were < 10 nM and > 1000 nM, respectively.

Consider `COc1cc(CCN2CCCCC2)cnc1-c1cccc2c(C[C@H](NC(=O)C3(C(F)(F)F)CCN(CC(F)(F)F)CC3)C(=O)O)cccc12` [Compound 983], for which the IC50 on α4β7 integrin was < 10 nM; at α4β1 integrin, > 1000 nM.

As for `COc1cccc(CCN2CCCC(C)(C)C2)c1-c1cccc2c(C[C@H](NC(=O)C3(C(F)(F)F)CCN(CC(F)F)CC3)C(=O)O)cccc12` [Compound 984], the results for the IC50 on α4β7 integrin and on α4β1 integrin were < 10 nM and 100 to 1000 nM, respectively.

Turning to `COc1cccc(CCN2CCC[C@@H](F)C2)c1-c1cccc2c(C[C@H](NC(=O)C3(C(F)(F)F)CCN(CC(F)(F)F)CC3)C(=O)O)cccc12` [Compound 985], the IC50 on α4β7 integrin is < 10 nM; on α4β1 integrin it was 100 to 1000 nM.

Consider `CC1(C)CCN(Cc2ccc(-c3cccc4c(C[C@H](NC(=O)C5(C(F)(F)F)CCN(CC(F)(F)F)CC5)C(=O)O)cccc34)c3cnccc23)CC1` [Compound 986], for which the IC50 at α4β7 integrin was < 10 nM; at α4β1 integrin, 100 to 1000 nM.

Take `O=C(O)[C@H](Cc1cccc2c(-c3ccc(CN4CCC(F)CC4)c4ccncc34)cccc12)NC(=O)C1(C(F)(F)F)CCN(CC(F)(F)F)CC1` [Compound 987]: the IC50 on α4β7 integrin is < 10 nM; at α4β1 integrin, > 1000 nM.

For `O=C(O)[C@H](Cc1cccc2c(-c3nc(CN4CCCCC4)cc4ccccc34)cccc12)NC(=O)C1(C(F)(F)F)CCN(CC(F)(F)F)CC1` [Compound 988], the concentration for half-maximal inhibition (IC50) on α4β7 integrin was 10 to 100 nM; at α4β1 integrin, > 1000 nM.

On to `O=C(O)[C@H](Cc1cccc2c(-c3ccc(CN4CCCC(F)C4)c4ccncc34)cccc12)NC(=O)C1(C(F)(F)F)CCN(CC(F)(F)F)CC1` (stereo partly drawn) [Compound 989], for which the IC50 on α4β7 integrin was 10 to 100 nM; on α4β1 integrin, > 1000 nM.

Consider `CN1CCC(Cc2ccc3ccnc(-c4cccc5c(C[C@H](NC(=O)C6(C(F)(F)F)CCN(CC(F)(F)F)CC6)C(=O)O)cccc45)c3c2)CC1` [Compound 990], for which the IC50 on α4β7 integrin was < 10 nM; on α4β1 integrin, > 1000 nM.

With `O=C(O)[C@H](Cc1cccc2c(-c3cccc4cc(CN5CCCCC5)ncc34)cccc12)NC(=O)C1(C(F)(F)F)CCN(CC(F)(F)F)CC1` [Compound 991], the results for the IC50 at α4β7 integrin and on α4β1 integrin were 100 to 1000 nM and > 1000 nM, respectively.

`COc1cc2c(c(OC)c1-c1cccc3c(C[C@H](NC(=O)C4(C(F)(F)F)CCN(CC(F)(F)F)CC4)C(=O)O)cccc13)CN(C1CCCCC1)CC2` [Compound 993]: the values for the IC50 on α4β7 integrin and at α4β1 integrin were < 10 nM and 100 to 1000 nM, respectively.

For `COC(=O)[C@H](Cc1cccc2c(-c3nc(CN4CCCCC4)cc4ccncc34)cccc12)NC(=O)C1(C(F)(F)F)CCN(CC(F)(F)F)CC1` [Compound 994], the IC50 on α4β7 integrin is 10 to 100 nM; at α4β1 integrin, > 1000 nM.

With `COc1ccc2c(c1-c1cccc3c(C[C@H](NC(=O)c4c(C)cccc4F)C(=O)O)cccc13)CN(CC(F)F)CC2` [Compound 995], the IC50 is 10 to 100 nM on α4β7 integrin and 100 to 1000 nM on α4β1 integrin.

Regarding `COc1cc(CN2CCC(C(F)(F)F)CC2)cnc1-c1cccc2c(C[C@H](NC(=O)c3c(C)cccc3F)C(=O)O)cccc12` [Compound 996], the half-inhibitory concentration (IC50) at α4β7 integrin was 10 to 100 nM; on α4β1 integrin, > 1000 nM.

For `COc1ccc2c(c1-c1cccc3c(C[C@H](NC(=O)c4c(C)cccc4F)C(=O)O)cccc13)CCN(CC(F)(F)F)C2` [Compound 997], the values for the IC50 on α4β7 integrin and on α4β1 integrin were 10 to 100 nM and > 1000 nM, respectively.

`COc1ccc2c(c1-c1cccc3c(C[C@H](NC(=O)c4c(C)cccc4F)C(=O)O)cccc13)CCN(C)C2` [Compound 998]: the IC50 was < 10 nM on α4β7 integrin and 100 to 1000 nM on α4β1 integrin.

Take `COc1cccc(OCCN2CCCCC2)c1-c1cccc2c(C[C@H](NC(=O)c3c(C)cccc3F)C(=O)O)cccc12` [Compound 999]: the figures for the IC50 at α4β7 integrin and on α4β1 integrin were < 10 nM and 100 to 1000 nM, respectively.

Consider `CCOCc1cc(CN2CCCCC2)c(-c2cccc3c(C[C@H](NC(=O)c4c(C)cccc4F)C(=O)O)cccc23)c(OC)c1` [Compound 1000], for which the IC50 at α4β7 integrin is < 10 nM; at α4β1 integrin, 100 to 1000 nM.

Consider `COc1ccc(CCN2CCCCC2)cc1-c1cccc2c(C[C@H](NC(=O)c3c(C)cccc3F)C(=O)O)cccc12` [Compound 1001], for which the IC50 at α4β7 integrin was 10 to 100 nM; at α4β1 integrin, > 1000 nM.

Take `Cc1cccc(F)c1C(=O)N[C@@H](Cc1cccc2c(-c3cccc4c3OCC4)cccc12)C(=O)O` [Compound 1002]: the IC50 on α4β7 integrin is 100 to 1000 nM; on α4β1 integrin, > 1000 nM.

For the molecule `COc1ccc2c(c1-c1cccc3c(C[C@H](NC(=O)c4c(C)cccc4F)C(=O)O)cccc13)CCN(CC(F)F)C2` [Compound 1003], the IC50 was 10 to 100 nM at α4β7 integrin and > 1000 nM at α4β1 integrin.

Turning to `COc1ccc(CCN2CCCCC2)c(C(F)(F)F)c1-c1cccc2c(C[C@H](NC(=O)c3c(C)cccc3F)C(=O)O)cccc12` [Compound 1004], the IC50 was < 10 nM at α4β7 integrin and 100 to 1000 nM at α4β1 integrin.

As for `COc1cc(CN2CCC(C)(C)CC2)cnc1-c1cccc2c(C[C@H](NC(=O)c3c(C)cccc3F)C(=O)O)cccc12` [Compound 1005], the figures for the IC50 at α4β7 integrin and at α4β1 integrin were 10 to 100 nM and > 1000 nM, respectively.

Take `COc1cc2c(cc1-c1cccc3c(C[C@H](NC(=O)c4c(C)cccc4F)C(=O)O)cccc13)CN(CC(F)F)CC2` [Compound 1006]: the IC50 fell in the range of 10 to 100 nM on α4β7 integrin and 100 to 1000 nM at α4β1 integrin.

For `CCOCc1cc(OC)c(-c2cccc3c(C[C@H](NC(=O)c4c(C)cccc4F)C(=O)O)cccc23)cc1CN1CCCCC1` [Compound 1008], the IC50 at α4β7 integrin is < 10 nM; on α4β1 integrin, 100 to 1000 nM.

Consider `COc1cc(C(F)(F)F)cc(CN2CCCCC2)c1-c1cccc2c(C[C@H](NC(=O)c3c(C)cccc3F)C(=O)O)cccc12` [Compound 1009], for which the figures for the IC50 on α4β7 integrin and on α4β1 integrin were < 10 nM and > 1000 nM, respectively.

As for `COc1c(CN(C)C)ccc(Cl)c1-c1cccc2c(C[C@H](NC(=O)c3c(C)cccc3F)C(=O)O)cccc12` [Compound 1011], the IC50 on α4β7 integrin is < 10 nM; at α4β1 integrin it was > 1000 nM.

As to `COc1ccc(CN2CCCC(F)C2)c(OC)c1-c1cccc2c(C[C@H](NC(=O)c3c(C)cccc3F)C(=O)O)cccc12` (stereo partly drawn) [Compound 1012], the IC50 is < 10 nM on α4β7 integrin and > 1000 nM at α4β1 integrin.

`COc1c(CN2CCCCC2)ccc(Cl)c1-c1cccc2c(C[C@H](NC(=O)c3c(C)cccc3F)C(=O)O)cccc12` [Compound 1013]: the IC50 was < 10 nM at α4β7 integrin and 100 to 1000 nM on α4β1 integrin.

Turning to `COc1cccc(CN2CCCCC2)c1-c1cccc2c(C[C@H](NC(=O)c3c(C)cccc3F)C(=O)O)cccc12` [Compound 1014], the IC50 on α4β7 integrin is < 10 nM; on α4β1 integrin, 100 to 1000 nM.

For `COc1cccc(CN2CCCC(F)C2)c1-c1cccc2c(C[C@H](NC(=O)c3c(C)cccc3F)C(=O)O)cccc12` (stereo partly drawn) [Compound 1015], the IC50 is < 10 nM on α4β7 integrin and 100 to 1000 nM on α4β1 integrin.

For the molecule `COc1ccc(CN2CCCCC2)nc1-c1cccc2c(C[C@H](NC(=O)c3c(C)cccc3F)C(=O)O)cccc12` [Compound 1016], the IC50 was < 10 nM on α4β7 integrin and 100 to 1000 nM at α4β1 integrin.

`COc1cccc(CN2CCC(C)(C)CC2)c1-c1cccc2c(C[C@H](NC(=O)c3c(C)cccc3F)C(=O)O)cccc12` [Compound 1017]: the IC50 was < 10 nM on α4β7 integrin and 100 to 1000 nM on α4β1 integrin.

With `COc1cc(CN2CCCCC2)cnc1-c1cccc2c(C[C@H](NC(=O)c3c(C)cccc3F)C(=O)O)cccc12` [Compound 1018], the IC50 at α4β7 integrin is < 10 nM; on α4β1 integrin, > 1000 nM.

For `COc1cc(CN2CCCCC2)cc(OC)c1-c1cccc2c(C[C@H](NC(=O)c3c(C)cccc3F)C(=O)O)cccc12` [Compound 1019], the IC50 on α4β7 integrin was < 10 nM; at α4β1 integrin, 100 to 1000 nM.

For the molecule `COc1c(CN2CCCCC2)ccnc1-c1cccc2c(C[C@H](NC(=O)c3c(C)cccc3F)C(=O)O)cccc12` [Compound 1020], the values for the IC50 on α4β7 integrin and at α4β1 integrin were 10 to 100 nM and > 1000 nM, respectively.
